Experiments:
[1] = molecular target: T1, nucleotide exchange on hKRASG12C mediated by hSOS1 (Homo sapiens, UniProt Q07889); test: Guanine nucleotide exchange assay (GNEA, HTRF); assay type: biochemical; conditions: HIS-hSOS1 564-1049aa mediated GTP loading onto GST-hKRASG12C 1-169aa, read-out: Guanine nucleotide exchange inhibition IC50
T1 construct: HIS-hSOS1, 564-1049aa mediated GTP loading onto GST-hKRASG12C; His (N); made in house
T1 sequence (Q07889 564-1049): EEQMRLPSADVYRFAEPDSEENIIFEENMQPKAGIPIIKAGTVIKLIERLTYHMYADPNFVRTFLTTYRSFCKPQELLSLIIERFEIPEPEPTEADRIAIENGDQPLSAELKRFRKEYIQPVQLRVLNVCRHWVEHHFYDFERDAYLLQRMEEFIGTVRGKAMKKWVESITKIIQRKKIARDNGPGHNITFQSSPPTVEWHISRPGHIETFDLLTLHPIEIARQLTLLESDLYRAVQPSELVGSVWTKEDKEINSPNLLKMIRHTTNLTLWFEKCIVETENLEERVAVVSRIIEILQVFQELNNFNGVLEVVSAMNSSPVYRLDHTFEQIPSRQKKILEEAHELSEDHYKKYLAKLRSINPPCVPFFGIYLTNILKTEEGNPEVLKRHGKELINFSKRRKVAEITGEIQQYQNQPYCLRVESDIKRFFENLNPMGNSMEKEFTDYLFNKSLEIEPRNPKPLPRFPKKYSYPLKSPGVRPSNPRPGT
Method in brief: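 Compounds were pre-incubated 10 min at 20 °C with HIS-hSOS1 (564-1049aa) and EDA-GTP-DY-647P1 (working solution 10-50 nM and 200 nM) in pH 7.4 HEPES with NaCl, MgCl2, DTT, BSA and Igepal. GST-hKRASG12C (1-169aa, 25-125 nM working solution) plus anti-GST-Tb was added for 30-60 min at 20 °C. Percent inhibition came from the HTRF 665/620 nm ratio.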

[2] = system: pERK after EGF stimulation in DLD1 cells; test: ERK phosphorylation assay (alphascreen pERK); assay type: cell-based; conditions: Homo sapiens, DLD-1, 2 h compound, 200 ng/ml hEGF for 5 minutes, read-out: ERK phosphorylation inhibition IC50
Method in brief: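 DLD1 cells pretreated with test compounds for 2 h, then stimulated with 200 ng/ml hEGF for 5 min. Lysates assayed by AlphaScreen SureFire for ERK1/2 p-T202/Y204, read after 2 h at 25–28 °C. % inhibition relative to the stimulated-minus-unstimulated vehicle window.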

[3] = molecular target: T2, protein-protein interaction between hSOS1 and hKRASG12C (Homo sapiens, UniProt Q07889); test: KRAS-SOS1 interaction assay (HTRF); assay type: binding; conditions: GST-hSOS1 564-1049aa, HIS-hKRASG12C, read-out: KRAS-SOS1 Interaction inhibition IC50
T2 construct: GST-hSOS1, 564-1049aa expressed and purified in-house
T2 sequence (Q07889 564-1049): T1 sequence (Q07889 564-1049)
Method in brief: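 GST-hSOS1 (564-1049aa) at 10-50 nM working solution pre-incubated with compounds 10 min at 20° C in HEPES pH 7.4 buffer with EDTA, DTT, BSA and Igepal. HIS-hKRASG12C (100-300 nM working solution) added for 30-60 min, then anti-GST-d2/anti-HIS-Tb detection; percent inhibition from the 665/620 nm ratio.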

How did the IC50 [1] turn out when `Cc1nc(N[C@H](C)c2cccc(C(F)(F)[C@](C)(O)CO)c2F)c2cc3c(cc2n1)OC(C)(C)C(=O)N3C` (racemic) [Compound 23b, 4-(((R/S)-1-(3-((R/S)-1,1-difluoro-2,3-dihydroxy-2-methylpropyl)-2-fluorophenyl)ethyl)amino)-2,6,8,8-tetramethyl-6H-[1,4]oxazino[3,2-g]quinazolin-7(8H)-one] was run?
The IC50 was 1 to 30 nM.

What about the IC50 [2] of the same molecule?
Its IC50 is 1 to 200 nM.

What about the IC50 [3] of the same molecule?
The IC50 was 1 to 10 nM.

How did the IC50 [1] turn out when `CO[C@]1(C)C(=O)N(C)c2cc3c(N[C@H](C)c4cccc(C(F)(F)[C@](C)(O)CN(C)C)c4F)nc(C)nc3cc21` (racemic) [Compound 135a, (S/R)-4-(((R)-1-(3-((S/R)-3-(dimethylamino)-1,1-difluoro-2-hydroxy-2-methylpropyl)-2-fluorophenyl)ethyl)amino)-8-methoxy-2,6,8-trimethyl-6,8-dihydro-7H-pyrrolo[2,3-g]quinazolin-7-one] was run?
The IC50 was 1 to 30 nM.

What about the IC50 [2] of the same molecule?
The IC50 was 1 to 200 nM.

What about the IC50 [3] of the same molecule?
Its IC50 is 1 to 10 nM.

How did the IC50 [1] turn out when `Cc1nc(N[C@H](C)c2cc(N)cc(C(F)(F)F)c2)c2cc3c(cc2n1)C(C)(C)C(=O)N3C` [Compound 70, (R)-4-((1-(3-amino-5-(trifluoromethyl)phenyl)ethyl)amino)-2,6,8,8-tetramethyl-6H-pyrrolo[2,3-g]quinazolin-7(8H)-one] was run?
Its IC50 is 31 to 130 nM.

And the IC50 [2]?
Its IC50 is 1 to 200 nM.

And the IC50 [3]?
The IC50 was 1 to 10 nM.

Which results are given for `Cc1nc(N[C@H](C)c2cccc(C(F)(F)C(C)(C)O)c2F)c2cc3c(c(F)c2n1)OCC(=O)N3C` [Compound 47, (R)-4-((1-(3-(1,1-difluoro-2-hydroxy-2-methylpropyl)-2-fluorophenyl)ethyl)amino)-10-fluoro-2,6-dimethyl-6H-[1,4]oxazino[3,2-g]quinazolin-7(8H)-one]?
IC50 [1]: 31 to 130 nM; IC50 [2]: 1 to 200 nM; IC50 [3]: 11 to 25 nM

`Cc1nc(N[C@H](C)c2cccc(C(F)(F)C(C)(C)O)c2F)c2cc3c(cc2n1)nc(C)c(=O)n3C` [Compound 39, (R)-4-((1-(3-(1,1-Difluoro-2-hydroxy-2-methylpropyl)-2-fluorophenyl)ethyl)amino)-2,6,8-trimethylpyrazino[2,3-g]quinazolin-7(6H)-one] was tested. Which IC50 [1] did it give?
Its IC50 is 1 to 30 nM.

And the IC50 [2]?
Its IC50 is 1 to 200 nM.

What about the IC50 [3] of the same molecule?
The IC50 was 1 to 10 nM.

Which IC50 [1] does the source give for `Cc1nc(N[C@H](C)c2cccc(C(F)(F)C(C)(C)O)c2F)c2cc3c(cc2n1)N(C)C(=O)C3C` (mixture of isomers) [Compound 95, (R&S)-4-(((R)-1-(3-(1,1-difluoro-2-hydroxy-2-methylpropyl)-2-fluorophenyl)ethyl)amino)-2,6,8-trimethyl-6,8-dihydro-7H-pyrrolo[3,2-g]quinazolin-7-one] here?
The IC50 was 31 to 130 nM.

What about the IC50 [2] of the same molecule?
Its IC50 is 1 to 200 nM.

What about the IC50 [3] of the same molecule?
Its IC50 is 11 to 25 nM.

Which IC50 [1] does the source give for `Cc1nc(N[C@H](C)c2cccc(C(F)(F)C(C)(O)CO)c2F)c2cc3c(cc2n1)C(C)(C)C(=O)N3C` (single isomer, unassigned) [Compound 76a] here?
Its IC50 is 1 to 30 nM.

And the IC50 [2]?
The IC50 was 1 to 200 nM.

And the IC50 [3]?
Its IC50 is 1 to 10 nM.

With `CO[C@]1(C)C(=O)N(C)c2cc3c(N[C@H](C)c4cc(N)cc(C(F)(F)F)c4)nc(C)nc3cc21` [Compound 131, (S)-4-(((R)-1-(3-amino-5-(trifluoromethyl)phenyl)ethyl)amino)-8-methoxy-2,6,8-trimethyl-6,8-dihydro-7H-pyrrolo[2,3-g]quinazolin-7-one] as the molecule, how does the IC50 [1] read?
The IC50 was 31 to 130 nM.

What about the IC50 [2] of the same molecule?
Its IC50 is 1 to 200 nM.

What about the IC50 [3] of the same molecule?
Its IC50 is 11 to 25 nM.

Which IC50 [1] does the source give for `Cc1nc(N[C@H](C)c2cccc(C(F)(F)C(C)(C)O)c2F)c2cc3c(cc2n1)N(C)C(=O)C3(CF)CF` [Compound 92, (R)-4-((1-(3-(1,1-difluoro-2-hydroxy-2-methylpropyl)-2-fluorophenyl)ethyl)amino)-6,6-bis(fluoromethyl)-2,8-dimethyl-6,8-dihydro-7H-pyrrolo[3,2-g]quinazolin-7-one] here?
The IC50 was 31 to 130 nM.

What about the IC50 [2] of the same molecule?
Its IC50 is 201 to 500 nM.

And the IC50 [3]?
Its IC50 is 1 to 10 nM.

What does the source list for `COCC1(C)C(=O)N(C)c2cc3nc(C)nc(N[C@H](C)c4cccc(C(F)(F)C(C)(C)O)c4F)c3cc21` (single isomer, unassigned) [Compound 94a]?
IC50 [1]: 1 to 30 nM; IC50 [2]: 1 to 200 nM; IC50 [3]: 1 to 10 nM

With `Cc1nc(N[C@H](C)c2cccc(C(F)(F)CO)c2F)c2cc3c(cc2n1)OC(C)(C)C(=O)N3C` [Compound 18, (R)-4-((1-(3-(1,1-difluoro-2-hydroxyethyl)-2-fluorophenyl)ethyl)amino)-2,6,8,8-tetramethyl-6H-[1,4]oxazino[3,2-g]quinazolin-7(8H)-one] as the molecule, how does the IC50 [1] read?
The IC50 was 1 to 30 nM.

What about the IC50 [2] of the same molecule?
Its IC50 is 1 to 200 nM.

What about the IC50 [3] of the same molecule?
The IC50 was 1 to 10 nM.

`Cc1nc(N[C@H](C)c2cc(N)cc(C(F)(F)F)c2)c2cc3c(cc2n1)OCC(=O)N3C` [Compound 1, (R)-4-((1-(3-amino-5-(trifluoromethyl)phenyl)ethyl)amino)-2,6-dimethyl-6H-[1,4]oxazino[3,2-g]quinazolin-7(8H)-one] was tested. Which IC50 [1] did it give?
The IC50 was 31 to 130 nM.

And the IC50 [2]?
Its IC50 is 1 to 200 nM.

And the IC50 [3]?
Its IC50 is 1 to 10 nM.

With `COCC[C@@]1(OC)C(=O)N(C)c2cc3c(N[C@H](C)c4cccc(C(F)(F)C(C)(C)O)c4F)nc(C)nc3cc21` (single isomer, unassigned) [Compound 132b] as the molecule, how does the IC50 [1] read?
The IC50 was 1 to 30 nM.

And the IC50 [2]?
Its IC50 is 1 to 200 nM.

What about the IC50 [3] of the same molecule?
The IC50 was 1 to 10 nM.

`Cc1nc(N[C@H](C)c2cccc(C(F)(F)C(C)(C)O)c2F)c2cc3c(cc2n1)C(C)C(=O)N3C` (mixture of isomers) [Compound 99, (R&S)-4-(((R)-1-(3-(1,1-difluoro-2-hydroxy-2-methylpropyl)-2-fluorophenyl)ethyl)amino)-2,6,8-trimethyl-6,8-dihydro-7H-pyrrolo[2,3-g]quinazolin-7-one] was tested. Which IC50 [1] did it give?
Its IC50 is 1 to 30 nM.

What about the IC50 [2] of the same molecule?
Its IC50 is 1 to 200 nM.

What about the IC50 [3] of the same molecule?
Its IC50 is 1 to 10 nM.

How did the IC50 [1] turn out when `CCc1nc(N[C@H](C)c2cccc(C(F)(F)C(C)(C)O)c2F)c2cc3c(cc2n1)N(C)C(=O)C3(C)C` [Compound 86, (R)-4-((1-(3-(1,1-difluoro-2-hydroxy-2-methylpropyl)-2-fluorophenyl)ethyl)amino)-2-ethyl-6,6,8-trimethyl-6,8-dihydro-7H-pyrrolo[3,2-g]quinazolin-7-one] was run?
Its IC50 is 31 to 130 nM.

What about the IC50 [2] of the same molecule?
Its IC50 is 1 to 200 nM.

And the IC50 [3]?
The IC50 was 1 to 10 nM.

How did the IC50 [1] turn out when `Cc1nc(N[C@H](C)c2cccc(C(F)(F)C(C)(C)O)c2F)c2cc3c(cc2n1)n(C)c(=O)n3C` [Compound 109, (R)-8-((1-(3-(1,1-difluoro-2-hydroxy-2-methylpropyl)-2-fluorophenyl)ethyl)amino)-1,3,6-trimethyl-1,3-dihydro-2H-imidazo[4,5-g]quinazolin-2-one] was run?
Its IC50 is 1 to 30 nM.

And the IC50 [2]?
The IC50 was 1 to 200 nM.

What about the IC50 [3] of the same molecule?
The IC50 was 1 to 10 nM.

`COCC1(C)C(=O)N(C)c2cc3c(N[C@H](C)c4cccc(C(F)(F)C(C)(C)O)c4F)nc(C)nc3cc21` (single isomer, unassigned) [Compound 98a] was tested. Which IC50 [1] did it give?
The IC50 was 1 to 30 nM.

And the IC50 [2]?
Its IC50 is 1 to 200 nM.

What about the IC50 [3] of the same molecule?
The IC50 was 1 to 10 nM.

For `Cc1nc(N[C@H](C)c2cccc(C(F)(F)C(C)(C)O)c2F)c2cc3c(cc2n1)OC(C)(C)CN3C` [Compound 34, (R)-1,1-Difluoro-1-(2-fluoro-3-(1-((2,6,8,8-tetramethyl-7,8-dihydro-6H-[1,4]oxazino [3,2-g]quinazolin-4-yl)amino)ethyl)phenyl)-2-methylpropan-2-ol], which IC50 [1] is on record?
The IC50 was 31 to 130 nM.

What about the IC50 [2] of the same molecule?
The IC50 was 1 to 200 nM.

What about the IC50 [3] of the same molecule?
Its IC50 is 1 to 10 nM.

`CCOC1(C)C(=O)N(C)c2cc3c(N[C@H](C)c4cccc(C(F)(F)C(C)(C)O)c4F)nc(C)nc3cc21` (single isomer, unassigned) [Compound 121a] was tested. Which IC50 [1] did it give?
The IC50 was 31 to 130 nM.

And the IC50 [2]?
Its IC50 is 1 to 200 nM.

What about the IC50 [3] of the same molecule?
Its IC50 is 1 to 10 nM.

Which IC50 [1] does the source give for `C[C@@H](Nc1nc(C2CC2)nc2cc3c(cc12)C(C)(C)C(=O)N3C)c1cccc(C(F)(F)C(C)(C)O)c1F` [Compound 110, (R)-2-cyclopropyl-4-((1-(3-(1,1-difluoro-2-hydroxy-2-methylpropyl)-2-fluorophenyl)ethyl)amino)-6,6,8-trimethyl-6,8-dihydro-7H-pyrrolo[3,2-g]quinazolin-7-one] here?
The IC50 was 31 to 130 nM.

And the IC50 [2]?
The IC50 was 201 to 500 nM.

What about the IC50 [3] of the same molecule?
The IC50 was 11 to 25 nM.

What does the source list for `CCn1c(=O)n(C)c2cc3nc(C)nc(N[C@H](C)c4cccc(C(F)(F)C(C)(C)O)c4F)c3cc21` [Compound 104, (R)-8-((1-(3-(1,1-difluoro-2-hydroxy-2-methylpropyl)-2-fluorophenyl)ethyl)amino)-1-ethyl-3,6-dimethyl-1H-imidazo[4,5-g]quinazolin-2(3H)-one]?
IC50 [1]: 1 to 30 nM; IC50 [2]: 1 to 200 nM; IC50 [3]: 1 to 10 nM

Reference: patent publication US20260209247A1, “Substituted Tricyclic Compounds” (Lupin Limited, priority 2019, published 2026)
